The source of these data is US20240018135A1, “COMPOUND HAVING INHIBITORY ACTIVITY AGAINST O-GLUSACASE AND USE THEREOF” (MEDIFRON DBT INC., priority 2020, published 2024).

Each structure is given as a SMILES string.

The target of data set [1] is Human OGA (recombinant hOGA protein) (Homo sapiens (Human), UniProt O60502). Kind of data set: Human OGA enzyme activity assay (fluorescence, 4-Methylumbelliferyl N-acetyl-β-D-glucosaminide substrate). Format: biochemical. The conditions noted are these: for % of inhibition: Table 1, test concentration not given; for IC50: Table 1.
Sequence of Human OGA (recombinant hOGA protein) (O60502 whole entry): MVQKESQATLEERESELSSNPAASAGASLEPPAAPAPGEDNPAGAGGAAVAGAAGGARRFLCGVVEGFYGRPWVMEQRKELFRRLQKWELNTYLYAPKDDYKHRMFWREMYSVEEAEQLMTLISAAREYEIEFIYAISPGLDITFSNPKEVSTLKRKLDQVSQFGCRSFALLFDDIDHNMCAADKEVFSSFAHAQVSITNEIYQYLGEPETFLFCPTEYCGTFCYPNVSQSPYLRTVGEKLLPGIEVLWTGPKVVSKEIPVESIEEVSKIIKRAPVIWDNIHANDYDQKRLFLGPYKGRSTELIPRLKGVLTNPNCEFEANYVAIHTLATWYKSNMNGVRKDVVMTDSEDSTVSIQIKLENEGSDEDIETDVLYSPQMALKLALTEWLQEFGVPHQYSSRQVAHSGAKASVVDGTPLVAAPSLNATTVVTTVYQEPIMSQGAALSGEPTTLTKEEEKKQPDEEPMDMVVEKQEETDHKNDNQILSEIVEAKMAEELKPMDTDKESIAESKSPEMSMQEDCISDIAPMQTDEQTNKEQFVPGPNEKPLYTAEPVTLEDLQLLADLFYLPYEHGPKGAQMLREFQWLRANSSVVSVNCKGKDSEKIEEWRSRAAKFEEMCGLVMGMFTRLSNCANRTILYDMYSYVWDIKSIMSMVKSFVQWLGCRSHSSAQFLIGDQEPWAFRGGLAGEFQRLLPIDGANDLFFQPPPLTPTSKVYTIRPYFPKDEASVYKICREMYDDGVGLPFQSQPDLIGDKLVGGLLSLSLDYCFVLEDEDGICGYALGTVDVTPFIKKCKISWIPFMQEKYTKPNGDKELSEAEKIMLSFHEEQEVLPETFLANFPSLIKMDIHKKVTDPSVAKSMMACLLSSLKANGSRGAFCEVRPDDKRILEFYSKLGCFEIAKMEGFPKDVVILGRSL

Take `CCOc1ccc2nc(NC(=O)CN3CCN(Cc4cnc(NC(C)=O)s4)CC3)sc2c1` [Compound A-29, 2-(4-((2-acetamidothiazol-5 yl)methyl)piperazin-1 yl)-N-(6-ethoxybenzo[d]thiazol-2-yl)acetamide]: the melting point – broadly, the temperature, or range, at which the solid turns liquid – was 244 to 246 °C. Moreover, the “% of inhibition” value in data set [1] came out at 44.6%.

Turning to `CC(=O)Nc1ncc(CN2CCN(CC(=O)Nc3nc4c(Cl)cccc4s3)CC2)s1` [Compound A-30, 2-(4-((2-acetamidothiazol-5-yl)methyl)piperazin-1-yl)-N-(4-chlorobenzo[d]thiazol-2-yl)acetamide], the melting point fell in the range of 255 to 257 °C. Moreover, the “% of inhibition” value in data set [1] was found to be 42.6%.

The compound `CC(=O)Nc1ncc(CN2CCN(CC(=O)N(C)c3ccccc3)CC2)s1` [Compound A-31, 2-(4-((2-acetamidothiazol-5-yl)methyl)piperazin-1-yl)-N-methyl-N-phenylacetamide] returned a melting point of 208 to 210 °C. Besides, the “% of inhibition” value in data set [1] stood at 50.4%.

`CC(=O)Nc1ncc(CN2CCN(CC(=O)Nc3ccccc3)CC2C)s1` (stereo not shown) [Compound A-32, 2-(4-((2-acetamidothiazol-5 yl)methyl)-3-methylpiperazin-1-yl)-N-phenylacetamide] came in with a melting point of 174 to 176 °C. Further, in data set [1], the IC50 – broadly, the point on the concentration scale where inhibition reaches its midpoint – was 240 nM and the “% of inhibition” value is 97.0%.

`CC(=O)Nc1ncc(CN2CCN(CC(=O)Nc3ccc(F)cc3)CC2C)s1` (stereo not shown) [Compound A-33, 2-(4-((2-acetamidothiazol-5-yl)methyl)-3-methylpiperazin-1-yl)-N-(4-fluorophenyl)acetamide] yielded a melting point of 102 to 105 °C. Also, in data set [1], the IC50 is 230 nM and the “% of inhibition” value was determined as 97.9%.

The compound `CC(=O)Nc1ncc(CN2CCN(CC(=O)NC3CCCCC3)CC2C)s1` (stereo not shown) [Compound A-35, 2-(4-((2-acetamidothiazol-5-yl)methyl)-3-methylpiperazin-1-yl)-N-cyclohexylacetamide] showed a melting point of 184 to 187 °C. In data set [1], the IC50 amounted to 100 nM and the “% of inhibition” value was 98.4%.

`CC(=O)Nc1ncc(CN2CCN(CC(=O)Nc3ccc(N4CCN(C(C)=O)CC4)cc3)CC2)s1` [Compound A-36, 2-(4-((2-acetamidothiazol-5 yl)methyl)piperazin-1-yl)-N-(4-(4-acetylpiperazin-1-yl)phenyl)acetamide] showed a melting point of 180 to 182 °C. In data set [1], the IC50 worked out at 1040 nM and the “% of inhibition” value amounted to 96.2%.

`CC(=O)Nc1ncc(CN2CCN(CC(=O)Nc3ccc(N4CCN(C(C)=O)CC4)cc3)CC2C)s1` (stereo not shown) [Compound A-37, 2-(4-((2-acetamidothiazol-5-yl)methyl)-3-methylpiperazin-1-yl)-N-(4-(4-acetylpiperazin-1-yl)phenyl)acetamide]: the melting point was determined as 232 °C. In data set [1], the IC50 is 70 nM and the “% of inhibition” value came to 98.4%.

In turn, `CC(=O)Nc1ncc(CN2CCN(CC(=O)Nc3ccc(Cc4ccccc4)cc3)CC2)s1` [Compound A-38, 2-(4-((2-acetamidothiazol-5-yl)methyl)piperazin-1-yl)-N-(4-benzylphenyl)acetamide] returned a melting point of 132 to 134 °C. For the same compound, in data set [1], the IC50 is 370 nM and the “% of inhibition” value is recorded as 90.8%.

The compound `CC(=O)Nc1ncc(CN2CCN(CC(=O)Nc3ccc(Cc4ccccc4)cc3)CC2C)s1` (stereo not shown) [Compound A-39, 2-(4-((2-acetamidothiazol-5-yl)methyl)-3-methylpiperazin-1-yl)-N-(4-benzylphenyl)acetamide] had a melting point of 193 to 195 °C. Moreover, in data set [1], the IC50 was found to be 60 nM and the “% of inhibition” value amounted to 98.8%.

Compound `CC(=O)Nc1ncc(CN2CCN(CC(=O)NCc3ccc(-c4ccccc4)cc3)CC2)s1` [Compound A-40, N-([1,1′-biphenyl]-4-ylmethyl)-2-(4-((2-acetamidothiazol-5-yl)methyl)piperazin-1-yl)acetamide] displayed a melting point of 167 to 170 °C. In addition, in data set [1], the IC50 came to 210 nM and the “% of inhibition” value amounted to 97.7%.

Regarding `CC(=O)Nc1ncc(CN2CCN(CC(=O)NCc3ccc(-c4ccccc4)cc3)CC2C)s1` (stereo not shown) [Compound A-41, N-([1,1′-biphenyl]-4-ylmethyl)-2-(4-((2-acetamidothiazol-5-yl)methyl)-3-methylpiperazin-1-yl)acetamide], the melting point fell in the range of 215 to 216 °C. In data set [1], the IC50 was 30 nM and the “% of inhibition” value was found to be 99.6%.

Turning to `CC(=O)Nc1ncc(CN2CCC(C(=O)Nc3ccccc3)CC2)s1` [Compound B-1, 1-((2-acetamidothiazol-5-yl)methyl)N-phenylpiperidine-4-carboxamide], the melting point lay in the range of 172 to 174 °C. In data set [1], the IC50 stood at 870 nM and the “% of inhibition” value is on record as 87.0%.

Consider `CC(=O)Nc1ncc(CN2CCC(C(=O)Nc3ccc(Cl)cc3)CC2)s1` [Compound B-2, 1-((2-acetamidothiazol-5-yl)methyl)-N-(4-chlorophenyl)piperidine-4-carboxamide], for which the melting point was in the range of 258 to 260 °C. In data set [1], the IC50 was 270 nM and the “% of inhibition” value is reported as 91.0%.

`CC(=O)Nc1ncc(CN2CCC(C(=O)Nc3ccc(C(C)C)cc3)CC2)s1` [Compound B-3, 1-((2-acetamidothiazol-5-yl)methyl)-N-(4-isopropylphenyl)piperidine-4-carboxamide]: the melting point fell in the range of 257 to 258 °C. For the same compound, in data set [1], the IC50 turned out to be 680 nM and the “% of inhibition” value amounted to 91.8%.

The compound `CC(=O)Nc1ncc(CN2CCC(C(=O)Nc3cnccn3)CC2)s1` [Compound B-4, 1-((2-acetamidothiazol-5-yl)methyl)-N-(pyrazin-2-yl)piperidine-4-carboxamide] had a melting point of 178 to 180 °C. Also, in data set [1], the “% of inhibition” value turned out to be 66.9%.

In turn, `CC(=O)Nc1ncc(CN2CCC(C(=O)NC3CCCCC3)CC2)s1` [Compound B-5, 1-((2-acetamidothiazol-5-yl)methyl)-N-cyclohexylpiperidine-4-carboxamide] had a melting point of 231 to 232 °C. The “% of inhibition” value in data set [1] is 46.7%.

`CC(=O)Nc1ncc(CN2CCC(C(=O)Nc3ccc4ncccc4c3)CC2)s1` [Compound B-6, 1-((2-acetamidothiazol-5 yl)methyl)-N-(quinolin-6-yl)piperidine-4-carboxamide] registered a melting point of 234 to 236 °C. Besides, in data set [1], the IC50 was 320 nM and the “% of inhibition” value is recorded as 91.4%.

Consider `CC(=O)Nc1ncc(CN2CCC(C(=O)NCc3ccccc3)CC2)s1` [Compound B-7, 1-((2-acetamidothiazol-5-yl)methyl)-N-benzylpiperidine-4-carboxamide], for which the melting point was in the range of 176 to 178 °C. In addition, in data set [1], the IC50 was determined as 1000 nM and the “% of inhibition” value worked out at 88.2%.

Turning to `COc1ccc(CNC(=O)C2CCN(Cc3cnc(NC(C)=O)s3)CC2)cc1` [Compound B-8, 1-((2-acetamidothiazol-5-yl)methyl)-N-(4-methoxybenzyl)piperidine-4-carboxamide], the melting point is 215 to 217 °C. In addition, in data set [1], the IC50 turned out to be 860 nM and the “% of inhibition” value turned out to be 93.9%.

In turn, `CC(=O)Nc1ncc(CN2CCC(C(=O)NC(C)c3ccc4c(c3)OCO4)CC2)s1` (stereo not shown) [Compound B-9, 1-((2-acetamidothiazol-5-yl)methyl)-N-(1-(benzo[d][1,3]dioxol-5-yl)ethyl)piperidine-4-carboxamide] yielded a melting point of 211 to 213 °C. In data set [1], the IC50 was 1010 nM and the “% of inhibition” value is reported as 93.1%.

Regarding `CC(=O)Nc1ncc(CN2CCC(C(=O)NC(C)c3ccccc3)CC2)s1` (stereo not shown) [Compound B-10, 1-((2-acetamidothiazol-5-yl)methyl)-N-(1-phenylethyl)piperidine-4-carboxamide], the melting point was in the range of 178 to 179 °C. Also, in data set [1], the IC50 came to 900 nM and the “% of inhibition” value is given as 93.3%.

As to `CC(=O)Nc1ncc(CN2CCC(C(=O)OC(C)c3ccc4c(c3)OCO4)CC2)s1` (stereo not shown) [Compound B-13, 1-(benzo[d][1,3]dioxol-5 yl)ethyl 1-((2-acetamidothiazol-5-yl)methyl)piperidine-4-carboxylate], the melting point is 215 to 217 °C. Besides, in data set [1], the IC50 amounted to 60 nM and the “% of inhibition” value was 98.9%.

In the case of `CC(=O)Nc1ncc(CN2CCCC(C(=O)Nc3ccccc3)C2)s1` (stereo not shown) [Compound B-16, 1-((2-acetamidothiazol-5-yl)methyl)-N-phenylpiperidine-3-carboxamide], the melting point fell in the range of 257 to 259 °C. In data set [1], the IC50 is 230 nM and the “% of inhibition” value was determined as 95.5%.

For `CC(=O)Nc1ncc(CN2CCCC(C(=O)Nc3ccc(F)cc3)C2)s1` (stereo not shown) [Compound B-17, 1-((2-acetamidothiazol-5-yl)methyl)-N-(4-fluorophenyl)piperidine-3-carboxamide], the melting point fell in the range of 127 to 129 °C. In addition, in data set [1], the IC50 came to 340 nM and the “% of inhibition” value worked out at 96.7%.

Compound `CC(=O)Nc1ncc(CN2CCCC(C(=O)Nc3ccc(C(C)C)cc3)C2)s1` (stereo not shown) [Compound B-18, 1-((2-acetamidothiazol-5-yl)methyl)-N-(4-isopropylphenyl)piperidine-3-carboxamide] had a melting point of 234 to 236 °C. In data set [1], the IC50 worked out at 240 nM and the “% of inhibition” value is recorded as 96.4%.

In the case of `CC(=O)Nc1ncc(CN2CCCC(C(=O)NC3CCCCC3)C2)s1` (stereo not shown) [Compound B-19, 1-((2-acetamidothiazol-5 yl)methyl)-N-cyclohexylpiperidine-3-carboxamide], the melting point is 265 to 267 °C. In addition, in data set [1], the IC50 came to 450 nM and the “% of inhibition” value turned out to be 97.6%.

In the case of `CC(=O)Nc1ncc(CN2CCC(=CC(=O)Nc3ccccc3)CC2)s1` [Compound C-1, 2-(1-((2-acetamidothiazol-5-yl)methyl)piperidin-4-ylidene)-N-phenylacetamide], the melting point was 184 to 185 °C. Besides, in data set [1], the IC50 is 310 nM and the “% of inhibition” value is given as 96.2%.
